Assay results reported in patent US9399646B2 (Genentech, Inc., priority 2010, dated 2016).

Assays:
MCF-7 cells = assay: Breast cancer cell viability assay (CellTiter-Glo, 5 days); assay type: cell-based; details: 5 days' compound exposure; for IC50: Homo sapiens, MCF7, 120 h
Method in brief: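 MCF-7 cells, 320 per well in RPMI with 10% FBS and 20 mM HEPES, adhered overnight, then exposed 5 days to an eleven-point semilog dilution (final 0.3-0.000003 μM). CellTiter-Glo luminescence read; % viability = (sample − cell-free background)/(untreated − background) × 100.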

ER-α in MCF-7 cells = molecular target: T1, ER-α in MCF-7 cells (Homo sapiens, UniProt P03372); assay: Breast cancer cell ER-α in cell western assay (SP1); assay type: cell-based; parameters: endogenous in cells; host or cells: MCF-7; details: 4 or 24 hr post compound addition; for Emax: MCF7, SP1 antibody, read-out: ER-α In Cell Western Assay (SP1) Max Response; for DC50: SP1 antibody, read-out: ER-α In Cell Western Assay (SP1) IC50
T1 sequence (P03372 1-595): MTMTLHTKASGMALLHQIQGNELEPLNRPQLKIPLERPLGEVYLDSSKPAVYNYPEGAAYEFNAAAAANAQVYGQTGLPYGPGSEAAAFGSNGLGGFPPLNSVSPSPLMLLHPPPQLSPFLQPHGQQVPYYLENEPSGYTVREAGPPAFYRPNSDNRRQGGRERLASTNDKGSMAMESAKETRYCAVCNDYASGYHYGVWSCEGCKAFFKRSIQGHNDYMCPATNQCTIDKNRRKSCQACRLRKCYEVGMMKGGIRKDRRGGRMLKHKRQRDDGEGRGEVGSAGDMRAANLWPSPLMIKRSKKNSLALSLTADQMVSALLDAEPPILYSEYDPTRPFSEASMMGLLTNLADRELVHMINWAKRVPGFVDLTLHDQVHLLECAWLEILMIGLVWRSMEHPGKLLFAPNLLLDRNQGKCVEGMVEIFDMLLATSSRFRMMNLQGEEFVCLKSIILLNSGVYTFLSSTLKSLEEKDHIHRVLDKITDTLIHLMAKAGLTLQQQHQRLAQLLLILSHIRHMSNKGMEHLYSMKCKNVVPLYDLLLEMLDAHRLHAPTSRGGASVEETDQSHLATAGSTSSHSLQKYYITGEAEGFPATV
Method in brief: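 ER-α protein levels were measured in MCF-7 cells after 4 or 24 hr compound exposure (final 0.3–0.000003 μM) in RPMI containing 10% charcoal-stripped FBS.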

SMILES	MCF7 Viability Assay Max Response (MCF-7 cells)	IC50 (MCF-7 cells)	Emax (ER-α in MCF-7 cells)	DC50 (ER-α in MCF-7 cells)
CC/C(=C(/c1ccc(/C=C/C(=O)O)cc1)c1ccc2[nH]ncc2c1)c1ccc(Oc2ccccc2)c(C)c1 [Compound 320, (E)-3-(4-((E)-1-(1H-Indazol-5-yl)-2-(3-methyl-4-phenoxyphenyl)but-1-en-1-yl)phenyl)acrylic acid]	++ (++ = a single % value ≧ 40%)	≤ 100 nM	≥ 40%	≤ 100 nM
CC/C(=C(/c1ccc(/C=C/C(=O)O)cc1)c1ccc2[nH]ncc2c1)c1cccc(Oc2cccc(S(C)(=O)=O)c2)c1 [Compound 321, (E)-3-(4-((E)-1-(1H-Indazol-5-yl)-2-(3-(3-(methylsulfonyl)phenoxy)phenyl)but-1-en-1-yl)phenyl)acrylic acid]	++ (++ = a single % value ≧ 40%)	≤ 100 nM	≥ 40%	≤ 100 nM
CC/C(=C(/c1ccc(/C=C/C(=O)O)cc1)c1ccc2[nH]ncc2c1)c1cccc(CC(=O)O)c1 [Compound 327, (E)-3-(4-((E)-2-(3-(Carboxymethyl)phenyl)-1-(1H-indazol-5-yl)but-1-en-1-yl)phenyl)acrylic acid]	+ (+ = a single % value < 40%)	> 100 nM	< 40%	> 100 nM
CC/C(=C(/c1ccc(/C=C/C(=O)O)cc1)c1ccc2[nH]ncc2c1)c1ccc(CC(=O)O)cc1 [Compound 328, (E)-3-(4-((E)-2-(4-(Carboxymethyl)phenyl)-1-(1H-indazol-5-yl)but-1-en-1-yl)phenyl)acrylic acid]	+ (+ = a single % value < 40%)	> 100 nM	< 40%	> 100 nM
CC/C(=C(/c1ccc(OC[C@H](C)N2CC[C@@H](C)C2)cc1)c1ccc2[nH]ncc2c1)c1ccccc1 [Compound 329, 5-((E)-1-(4-((S)-2-((R)-3-Methylpyrrolidin-1-yl)propoxy)phenyl)-2-phenylbut-1-en-1-yl)-1H-indazole]	++ (++ = a single % value ≧ 40%)	≤ 100 nM	≥ 40%	≤ 100 nM
CC/C(=C(/c1ccc(OC[C@H](C)N2CC[C@@H](C)C2)cc1)c1ccc2[nH]ncc2c1)c1ccccc1Cl [Compound 330, 5-((E)-2-(2-Chlorophenyl)-1-(4-((S)-2-((R)-3-methylpyrrolidin-1-yl)propoxy)phenyl)but-1-en-1-yl)-1H-indazole]	++ (++ = a single % value ≧ 40%)	≤ 100 nM	≥ 40%	≤ 100 nM
CC/C(=C(/c1ccc(OC[C@H](C)N2CC[C@@H](C)C2)cc1)c1ccc2[nH]ncc2c1)c1ccncc1Cl [Compound 331, 5-((E)-2-(3-Chloropyridin-4-yl)-1-(4-((S)-2-((R)-3-methylpyrrolidin-1-yl)propoxy)phenyl)but-1-en-1-yl)-1H-indazole]	++ (++ = a single % value ≧ 40%)	≤ 100 nM	≥ 40%	≤ 100 nM
CC/C(=C(/c1ccc(OC2(C(=O)O)CC2)cc1)c1ccc2[nH]ncc2c1)c1ccc(F)cc1Cl [Compound 332, (E)-1-(4-(2-(2-Chloro-4-fluorophenyl)-1-(1H-indazol-5-yl)but-1-en-1-yl)phenoxy)cyclopropanecarboxylic acid]	++ (++ = a single % value ≧ 40%)	> 100 nM	≥ 40%	> 100 nM
CC/C(=C(/c1ccc(-c2cc(O)no2)cc1)c1ccc2[nH]ncc2c1)c1ccc(F)cc1Cl [Compound 333, (E)-5-(4-(2-(2-Chloro-4-fluorophenyl)-1-(1H-indazol-5-yl)but-1-en-1-yl)phenyl)isoxazol-3-ol]	++ (++ = a single % value ≧ 40%)	≤ 100 nM	≥ 40%	≤ 100 nM
CC/C(=C(/c1ccc(-c2cc(O)on2)cc1)c1ccc2[nH]ncc2c1)c1ccc(F)cc1Cl [Compound 334, (E)-3-(4-(2-(2-Chloro-4-fluorophenyl)-1-(1H-indazol-5-yl)but-1-en-1-yl)phenyl)isoxazol-5-ol]	+ (+ = a single % value < 40%)	> 100 nM	≥ 40%	≤ 100 nM
CC/C(=C(/c1ccc(CCC(=O)O)cc1)c1ccc2[nH]ncc2c1)c1ccccc1 [Compound 338, (E)-3-(4-(1-(1H-Indazol-5-yl)-2-phenylbut-1-en-1-yl)phenyl)propanoic acid]	++ (++ = a single % value ≧ 40%)	> 100 nM	≥ 40%	≤ 100 nM
CC/C(=C(/c1ccc(/C=C/C(=O)O)cc1)c1ccc2[nH]ncc2c1)c1ccc(OCCOC)cc1 [Compound 339, (E)-3-(4-((E)-1-(1H-Indazol-5-yl)-2-(4-(2-methoxyethoxy)phenyl)but-1-en-1-yl)phenyl)acrylic acid]	++ (++ = a single % value ≧ 40%)	≤ 100 nM	≥ 40%	≤ 100 nM
CC/C(=C(/c1ccc(/C=C/C(=O)O)cc1)c1ccc2[nH]ncc2c1)c1ccc(OCCCOC)cc1 [Compound 340, (E)-3-(4-((E)-1-(1H-Indazol-5-yl)-2-(4-(3-methoxypropoxy)phenyl)but-1-en-1-yl)phenyl)acrylic acid]	++ (++ = a single % value ≧ 40%)	≤ 100 nM	≥ 40%	≤ 100 nM
CC/C(=C(/c1ccc(/C=C/C(=O)O)cc1)c1ccc2[nH]ncc2c1)c1cccc(OCCOC)c1 [Compound 341, (E)-3-(4-((E)-1-(1H-Indazol-5-yl)-2-(3-(2-methoxyethoxy)phenyl)but-1-en-1-yl)phenyl)acrylic acid]	++ (++ = a single % value ≧ 40%)	≤ 100 nM	≥ 40%	≤ 100 nM
CC/C(=C(/c1ccc(/C=C/C(=O)O)cc1)c1ccc2[nH]ncc2c1)c1cccc(OCCCOC)c1 [Compound 342, (E)-3-(4-((E)-1-(1H-Indazol-5-yl)-2-(3-(3-methoxypropoxy)phenyl)but-1-en-1-yl)phenyl)acrylic acid]	++ (++ = a single % value ≧ 40%)	≤ 100 nM	≥ 40%	≤ 100 nM
CC/C(=C(/c1ccc(/C=C/C(=O)O)cc1)c1ccc2[nH]ncc2c1F)c1cccc(OC2CCN(C)CC2)c1 [Compound 343, (E)-3-(4-((E)-1-(4-Fluoro-1H-indazol-5-yl)-2-(3-((1-methylpiperidin-4-yl)oxy)phenyl)but-1-en-1-yl)phenyl)acrylic acid]	++ (++ = a single % value ≧ 40%)	> 100 nM	≥ 40%	> 100 nM
CC/C(=C(/c1ccc(/C=C/C(=O)O)cc1)c1ccc2[nH]ncc2c1F)c1cccc(OC2CCOCC2)c1 [Compound 344, (E)-3-(4-((E)-1-(4-Fluoro-1H-indazol-5-yl)-2-(3-((tetrahydro-2H-pyran-4-yl)oxy)phenyl)but-1-en-1-yl)phenyl)acrylic acid]	++ (++ = a single % value ≧ 40%)	> 100 nM	≥ 40%	≤ 100 nM
CC/C(=C(/c1ccc(/C=C/C(=O)O)cc1)c1ccc2[nH]ncc2c1F)c1cccc(OC2CCCCC2)c1 [Compound 345, (E)-3-(4-((E)-2-(3-(Cyclohexyloxy)phenyl)-1-(4-fluoro-1H-indazol-5-yl)but-1-en-1-yl)phenyl)acrylic acid]	++ (++ = a single % value ≧ 40%)	≤ 100 nM	≥ 40%	≤ 100 nM
CC/C(=C(/c1ccc(/C=C/C(=O)O)cc1)c1ccc2[nH]ncc2c1)c1cccc(OCC(=O)O)c1 [Compound 347, (E)-3-(4-((E)-2-(3-(Carboxymethoxy)phenyl)-1-(1H-indazol-5-yl)but-1-en-1-yl)phenyl)acrylic acid]	+ (+ = a single % value < 40%)	> 100 nM	< 40%	> 100 nM
CC/C(=C(/c1ccc(/C=C/C(=O)O)cc1)c1ccc2[nH]ncc2c1)c1ccc(OCC(=O)O)cc1 [Compound 348, (E)-3-(4-((E)-2-(4-(Carboxymethoxy)phenyl)-1-(1H-indazol-5-yl)but-1-en-1-yl)phenyl)acrylic acid]	+ (+ = a single % value < 40%)	> 100 nM	< 40%	> 100 nM
CCCCCOc1cccc(/C(CC)=C(\c2ccc(/C=C/C(=O)O)cc2)c2ccc3[nH]ncc3c2)c1 [Compound 349, (E)-3-(4-((E)-1-(1H-Indazol-5-yl)-2-(3-(pentyloxy)phenyl)but-1-en-1-yl)phenyl)acrylic acid]	++ (++ = a single % value ≧ 40%)	≤ 100 nM	≥ 40%	≤ 100 nM
